The results in this text go back to US20240358672A1, “APPLICATION OF GENISTEIN AND ITS PHOSPHATE ESTER DERIVATIVE AND PHARMACEUTICAL COMPOSITION COMPRISING THE SAME” (National Taiwan University, priority 2023, published 2024).

One experiment deals with C57BL/6J mice. The class given is in vivo. The following applies: Δ^9-THC 1 mg/kg plus genistein 50 mg/kg or rimonabant 3 mg/kg. How it is done:
FIG. 7A: Isometric tension recordings of isolated mice thoracic aortas were performed using a wire myograph. Vascular concentration-dependent relaxation was induced by acetylcholine (ACh) in pre-constricted mouse thoracic arteries. […] FIG. 7C: Luminex analysis of inflammatory cytokines in plasma of C57BL/6J mice treated with vehicle control, Δ^9-THC, or Δ^9-THC plus genistein. […] FIG. 7E: Effect of Δ^9-THC and genistein on NF-κB phosphorylation in mouse thoracic artery. Total cell lysates were prepared, and the expressions of phosphor-NF-κB were analyzed by ELISA (upper left). Superoxide dismutase (SOD) activity of serum from mouse (bottom left). The effect of Δ^9-THC and genistein on NF-κB phosphorylation in mouse thoracic artery tissues (n=5). Total cell lysates were prepared, and the expressions of NF-κB, phosphorylated NF-κB, and β-actin were analyzed by western blot analysis (right panel). FIG. 7F: The levels reduced glutathione (GSH), Oxidized glutathione (GSSG), Total glutathione (T-GSH) and GSH/GSSG in the serum samples of mice were detected. Plasma isolated from C57BL/6J mice (n=5) treated with vehicle control, Δ^9-THC, genistein, or their combination every day for 30 days was analyzed by the glutathione colorimetric assay kit (BioVision, K261).
Genistein also rescued the oxidative stress protective-related gene expression (FIG. 7D). In addition, NF-κB phosphorylation and SOD expression in mouse serum were also attenuated with genistein (FIG. 7E). Δ^9-THC administration decreased circulating levels of the antioxidant glutathione, which was ameliorated with genistein cotreatment (FIG. 7F).

The next experiment addresses CB1 receptor (Homo sapiens, UniProt P21554). Put plainly: GTPase-Glo assay (in vitro GTPase assay). The following applies: GTPase-Glo assay. The experiment is classed as biochemical.

CB1 receptor, sequence (P21554 whole entry): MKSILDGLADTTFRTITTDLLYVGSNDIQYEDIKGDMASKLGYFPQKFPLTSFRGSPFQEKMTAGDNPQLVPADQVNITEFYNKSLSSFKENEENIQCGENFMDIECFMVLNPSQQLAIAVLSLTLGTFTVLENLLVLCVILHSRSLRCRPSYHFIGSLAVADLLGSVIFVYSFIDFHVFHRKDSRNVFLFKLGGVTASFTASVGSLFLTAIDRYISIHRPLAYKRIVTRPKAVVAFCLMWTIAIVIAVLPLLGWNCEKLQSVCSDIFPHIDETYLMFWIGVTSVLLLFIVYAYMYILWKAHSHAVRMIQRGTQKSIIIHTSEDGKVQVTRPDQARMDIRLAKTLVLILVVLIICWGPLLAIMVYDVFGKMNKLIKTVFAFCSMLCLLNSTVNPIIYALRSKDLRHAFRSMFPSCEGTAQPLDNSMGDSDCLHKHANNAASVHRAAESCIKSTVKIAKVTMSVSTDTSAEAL

Consider `Cc1c(C(=O)NN2CCCCC2)nn(-c2ccc(Cl)cc2Cl)c1-c1ccc(Cl)cc1` [rimonabant], for which the “Δ^9-THC-induced mRNA expressions of inflammation-related genes in mouse thoracic artery tissues” value in the experiment with C57BL/6J mice was “ameliorated”.
With `C[C@H](NC(=O)C(C)(C)Oc1ccc(C(F)(F)F)cn1)[C@@H](Cc1ccc(Cl)cc1)c1cccc(C#N)c1` [taranabant], the “GTP turnover compared with Apo” value on CB1 receptor is “decrease GTP turnover”.
